Values quoted from earlier work, collected in patent US20250311762A1, “FORMULATION AND METHOD FOR AN EXERCISE SUPPORTING NUTRITIONAL SUPPLEMENT” (BullFit, LLC., priority 2024, published 2025).

Assays:
[1] = test system: cognitive function; details: 2 g per day for 5 days during a demanding military combat training course
[2] = test system: anaerobic strength performance; details: athletes supplementing with Betaine

With `N[C@@H](Cc1ccc(O)cc1)C(=O)O` [L-tyrosine, L-Tyrosine] as the molecule, how does the “cognitive function relative to placebo” value [1] read?
The value was “improved various aspects of cognitive function relative to placebo”.

For `C[N+](C)(C)CC(=O)[O-]` [Betaine, trimethylglycine], which “squat, bench press, and other activities” value [2] is on record?
The value was “increased their squat, bench press, and other activities”.
